Data from ChEMBL document CHEMBL1201862, “PubChem BioAssay data set” (2004).
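The compound was tested at five concentrations on cells cultured in 96-well plates, with a 48-hour exposure period. At the GI50, growth is halved.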 The source made the active and inactive calls. No stated cut-off is given here; in the data, active = GI50 up to about 1.1 µM and inactive = higher.

Legend:
Assay in all cases: inhibition of tumour cell growth, NCI panel, 48 h
[1] = tested on: SNB-19
[2] = tested on: M14
[3] = tested on: KM12
[4] = tested on: LOX IMVI
[5] = tested on: NCI-H226
[6] = tested on: NCI-H23
[7] = tested on: ACHN
[8] = tested on: CCRF-CEM
[9] = tested on: K562
[10] = tested on: UACC-257
[11] = tested on: A549
[12] = tested on: HOP-92
[13] = tested on: EKVX
[14] = tested on: OVCAR-3
[15] = tested on: UO-31

SMILES | GI50 [1] | GI50 [2] | GI50 [3] | GI50 [4] | GI50 [5] | GI50 [6] | GI50 [7] | GI50 [8] | GI50 [9] | GI50 [10] | GI50 [11] | GI50 [12] | GI50 [13] | GI50 [14] | GI50 [15]
Cc1c[nH]c2c1C13CC1CN(C(=O)c1cc4cc(NC(=O)c5cc6ccccc6o5)ccc4[nH]1)C3=CC2=O (configuration not stated) | < 0.001 µM (active) | < 0.001 µM (active) | < 0.001 µM (active) | < 0.001 µM (active) | < 0.001 µM (active) | < 0.001 µM (active) | < 0.001 µM (active) | < 0.001 µM (active) | < 0.001 µM (active) | < 0.001 µM (active) |  |  |  |  | 
Oc1ccc2occ3c2c1CCC3 | > 100 µM (inactive) | > 100 µM (inactive) |  | > 100 µM (inactive) |  | > 100 µM (inactive) | > 100 µM (inactive) | > 100 µM (inactive) | 65.8 µM (inactive) | > 100 µM (inactive) | > 100 µM (inactive) | 29.2 µM (inactive) | 72.6 µM (inactive) | 64.1 µM (inactive) | 
C=CCN1/C(=C2\SC(=S)N(c3ccc(C)cc3)C2=O)Sc2c1ncn(C)c2=O | > 100 µM (inactive) | > 100 µM (inactive) | > 100 µM (inactive) | > 100 µM (inactive) | 78.5 µM (inactive) | > 100 µM (inactive) | > 100 µM (inactive) | > 100 µM (inactive) | > 100 µM (inactive) | > 100 µM (inactive) | > 100 µM (inactive) | > 100 µM (inactive) | 69 µM (inactive) |  | > 100 µM (inactive)
C/C(=N/N(C=O)C[n+]1ccccc1)C(CN(CC(C)C)CC(C)C)C(=O)Nc1ccc(C)cc1C (configuration not stated) | 67.9 µM (inactive) | > 100 µM (inactive) | 84.1 µM (inactive) |  |  | > 100 µM (inactive) | 94.2 µM (inactive) | > 100 µM (inactive) | > 100 µM (inactive) | > 100 µM (inactive) | > 100 µM (inactive) | 75.3 µM (inactive) | 17.8 µM (inactive) | > 100 µM (inactive) | 25.8 µM (inactive)
Cc1c(Cl)cccc1NC(=O)C(=O)c1c(O)c2ccc(O)cc2oc1=O | > 100 µM (inactive) | > 100 µM (inactive) | > 100 µM (inactive) | > 100 µM (inactive) | > 100 µM (inactive) | > 100 µM (inactive) | > 100 µM (inactive) | > 100 µM (inactive) | > 100 µM (inactive) | > 100 µM (inactive) | > 100 µM (inactive) | > 100 µM (inactive) | > 100 µM (inactive) | > 100 µM (inactive) | > 100 µM (inactive)
O=C1C(c2ccccc2)=C(c2ccccc2)C(c2ccc(Sc3ccc(C4=C(c5ccccc5)C(=O)C(c5ccccc5)=C4c4ccccc4)cc3)cc2)=C1c1ccccc1 | > 100 µM (inactive) | > 100 µM (inactive) | > 100 µM (inactive) | > 100 µM (inactive) | > 100 µM (inactive) | > 100 µM (inactive) |  | > 100 µM (inactive) | > 100 µM (inactive) | > 100 µM (inactive) | > 100 µM (inactive) | > 100 µM (inactive) | > 100 µM (inactive) | > 100 µM (inactive) | > 100 µM (inactive)
O=c1[nH]c2ccccc2cc1C(Cl)=C(Cl)Cl | > 100 µM (inactive) | > 100 µM (inactive) | > 100 µM (inactive) | > 100 µM (inactive) | > 100 µM (inactive) | > 100 µM (inactive) | > 100 µM (inactive) | > 100 µM (inactive) | > 100 µM (inactive) | > 100 µM (inactive) | > 100 µM (inactive) | > 100 µM (inactive) | 35.7 µM (inactive) | > 100 µM (inactive) | > 100 µM (inactive)
Cc1nc2ccccc2c(=O)n1/N=C(\N=N\c1cc(Cl)ccc1Cl)c1ccc(N(C)C)cc1 | 33.3 µM (inactive) |  |  | 63.4 µM (inactive) |  | 34.8 µM (inactive) | 71.8 µM (inactive) | 52.7 µM (inactive) | 57.1 µM (inactive) |  | > 100 µM (inactive) |  | 45.3 µM (inactive) |  | 22.9 µM (inactive)
CCOC(=O)C1=C(Nc2ccc(Cl)c(Cl)c2)OC/C1=N\NS(=O)(=O)c1ccc(C)cc1 | 59 µM (inactive) | 73.3 µM (inactive) | 39.5 µM (inactive) | 9.48 µM (inactive) | 27.3 µM (inactive) | 34.7 µM (inactive) |  | 27.5 µM (inactive) | 21.3 µM (inactive) | 18.2 µM (inactive) | 52.2 µM (inactive) |  | 58.1 µM (inactive) | 49.5 µM (inactive) | 25.1 µM (inactive)
CC(=O)N(/N=C\c1ccc([N+](=O)[O-])cc1)c1ccccc1 | > 100 µM (inactive) | > 100 µM (inactive) | > 100 µM (inactive) | > 100 µM (inactive) | > 100 µM (inactive) | > 100 µM (inactive) | > 100 µM (inactive) | > 100 µM (inactive) | > 100 µM (inactive) | > 100 µM (inactive) | > 100 µM (inactive) | > 100 µM (inactive) | > 100 µM (inactive) | > 100 µM (inactive) | 35.9 µM (inactive)
CCOC(=O)Cc1nc(/C(C#N)=C/c2ccco2)[nH]c(=O)c1C#N | > 100 µM (inactive) | > 100 µM (inactive) | > 100 µM (inactive) | > 100 µM (inactive) | > 100 µM (inactive) | > 100 µM (inactive) | > 100 µM (inactive) | > 100 µM (inactive) | > 100 µM (inactive) | > 100 µM (inactive) | > 100 µM (inactive) | > 100 µM (inactive) | > 100 µM (inactive) | > 100 µM (inactive) | > 100 µM (inactive)
Clc1ccc2c(Cl)ncnc2c1I | > 100 µM (inactive) | 49.8 µM (inactive) | > 100 µM (inactive) | > 100 µM (inactive) | 32.4 µM (inactive) | > 100 µM (inactive) | > 10 µM (inactive) | > 10 µM (inactive) | 30.5 µM (inactive) | > 100 µM (inactive) | > 100 µM (inactive) |  | 10.4 µM (inactive) | > 100 µM (inactive) | 67.8 µM (inactive)
Cc1ccc(C)c(NC(=O)C(=O)Nn2c(S)nc3ccccc3c2=O)c1 | > 100 µM (inactive) | > 100 µM (inactive) | > 100 µM (inactive) | > 100 µM (inactive) | > 100 µM (inactive) | > 100 µM (inactive) | > 100 µM (inactive) | > 100 µM (inactive) | > 100 µM (inactive) | > 100 µM (inactive) | > 100 µM (inactive) | > 100 µM (inactive) | 71.3 µM (inactive) |  | > 100 µM (inactive)
N/C(=N\O)N/N=C/c1ccc(O)c(O)c1 | > 100 µM (inactive) | > 100 µM (inactive) | > 100 µM (inactive) | > 100 µM (inactive) | > 100 µM (inactive) | > 100 µM (inactive) | > 100 µM (inactive) | > 100 µM (inactive) | 44.9 µM (inactive) | > 100 µM (inactive) | > 100 µM (inactive) | > 100 µM (inactive) | > 100 µM (inactive) | > 100 µM (inactive) | > 100 µM (inactive)
O=C1c2cccc([N+](=O)[O-])c2C(=O)c2nccnc21 | 1.69 µM (inactive) | 1.57 µM (inactive) |  | 1.04 µM (active) | 1.94 µM (inactive) | 1.25 µM (inactive) | 3.19 µM (inactive) | 2.54 µM (inactive) | 1.91 µM (inactive) | 0.502 µM (active) | 1.66 µM (inactive) | 7.1 µM (inactive) | 1.81 µM (inactive) | 1.87 µM (inactive) | 1.27 µM (inactive)
COc1ccccc1/C=C(\NC(=O)c1ccccc1)c1nc2ccccc2[nH]1 | 34 µM (inactive) | 39.8 µM (inactive) | 32.6 µM (inactive) | 52.4 µM (inactive) |  | 33.2 µM (inactive) | 36.6 µM (inactive) | 40.6 µM (inactive) | 32.9 µM (inactive) | 31 µM (inactive) | 46.8 µM (inactive) | 28.9 µM (inactive) | 34.7 µM (inactive) | 44.5 µM (inactive) | 63.8 µM (inactive)
CCCCCCCCCCCCCCCC/C(C(=O)OC)=C(/O)C(=O)OCC | > 100 µM (inactive) | > 100 µM (inactive) | > 100 µM (inactive) | > 100 µM (inactive) | > 100 µM (inactive) | > 100 µM (inactive) | 70.5 µM (inactive) | > 100 µM (inactive) | > 100 µM (inactive) | > 100 µM (inactive) | > 100 µM (inactive) | 38.9 µM (inactive) |  | > 100 µM (inactive) | 94 µM (inactive)
O=C(O)c1ccc(C2C(=O)N[C@@H]3CCC[C@H]23)cc1 (some centres not stated) | > 100 µM (inactive) | > 100 µM (inactive) | > 100 µM (inactive) | > 100 µM (inactive) | > 100 µM (inactive) | > 100 µM (inactive) |  | > 100 µM (inactive) | > 100 µM (inactive) | > 100 µM (inactive) | > 100 µM (inactive) |  | > 100 µM (inactive) | > 100 µM (inactive) | > 100 µM (inactive)
CC(CCC[C@H](C)CO)[C@H]1[C@@H](O)C(O)C2[C@@H]3C[C@@H](O)C4(O)C[C@@H](O)CC[C@]4(C)C3CC[C@@]21C (some centres not stated) | > 100 µM (inactive) | > 100 µM (inactive) | > 100 µM (inactive) | > 100 µM (inactive) | > 100 µM (inactive) | > 100 µM (inactive) | > 100 µM (inactive) | 40.9 µM (inactive) | 31.8 µM (inactive) | > 100 µM (inactive) | > 100 µM (inactive) | 87.3 µM (inactive) | > 100 µM (inactive) | > 100 µM (inactive) | > 100 µM (inactive)
CCN(CC)CCOc1ccc(CCc2cc(OC)c(OC)c(OC)c2)cc1 | > 100 µM (inactive) | 17.5 µM (inactive) | 35.3 µM (inactive) | 13.9 µM (inactive) | 45 µM (inactive) |  | 50.4 µM (inactive) | 64.1 µM (inactive) | 27.8 µM (inactive) | 27.9 µM (inactive) | 47.3 µM (inactive) | 20.6 µM (inactive) | 65.3 µM (inactive) | 45.7 µM (inactive) | 28.2 µM (inactive)
